Measurements published in patent US20080200489A1, “Combination of Organic Compounds” (priority 2005, published 2008).

Legend:
[1] = tested on: K562 cells; assay: Apoptosis assessment by annexin V staining, K562 cells; type: cell-based, human; settings: for apoptosis of K562 cells: agent alone
Method: (§1) Cell lines and cell culture: Bcr-Abl-expressing, CML LAMA-84 and K562 cells are obtained from American Tissue Culture Collection (Manassas, Va.) and maintained in culture in RPMI medium containing 10% fetal bovine serum and passaged twice a week. Mouse pro-B BaF3 cells are cultured in complete RPMI-1640 media supplemented with 10% WEHI medium as the source of IL-3. For the studies described herein, logarithmically growing cells are exposed to the designated concentrations of Compound (II) and/or Compound (V). Following these treatments, cells or cell pellets are washed free of the drug(s) prior to the performance of the studies. Apoptosis assessment by annexin V staining: Untreated and drug-treated cells are stained with annexin V and PI, and the percentage of apoptotic cells is determined by flow cytometry. Analysis of synergism between Compound (II) and Compound (V) in inducing apoptosis of K562 and LAMA-84 cells is performed by Median Dose-Effect analysis of Chou and Talalay using the commercially-available software (Calcusyn; Biosoft, Ferguson, Mo.).

[2] = tested on: LAMA-84 cells; assay: Apoptosis assessment by annexin V staining, LAMA-84 cells; type: cell-based, human; settings: for apoptosis of LAMA-84 cells: agent alone
Method: as §1

[3] = tested on: NBMCs; assay: Loss of survival of NBMCs; type: cell-based; settings: for loss of survival of NBMCs: 48 hours, mean of 2 samples
From the text: Primary CML-BC cells and NBMCs: Leukemia cells from the peripheral blood and/or bone marrow of 10 patients who had met the clinical criteria of imatinib-resistant Ph chromosome-positive CML-BC (Imatinib-resistant Philadelphia chromosome-positive chromic myeloid leukaemia-blast crisis) are harvested and purified. Additionally, NBMCs are harvested and purified. Informed consents are signed by all patients to allow use of their cells for these experiments, as part of a clinical protocol approved by the University of South Florida Institutional Review Board (IRB).
Assessment of percentage of non-viable cells: Cells are stained with trypan blue (Sigma, St Louis, Mo.).

[4] = tested on: BaF3/Bcr-AblT315I cells; assay: Apoptosis of BaF3 cells expressing Bcr-AblT315I; type: cell-based, mouse
Method: Mouse pro-B BaF3 cells are cultured in complete RPMI-1640 media supplemented with 10% WEHI medium as the source of IL-3. […] Following these treatments, cells or cell pellets are washed free of the drug(s) prior to the performance of the studies.
Site-directed mutagenesis and nucleofection: Three p210 Bcr-Abl constructs are used in the current studies. The p210 Bcr-Abl WT and p210 Bcr-Abl (T315I) constructs are generated. […] For nucleofection of the p210 Bcr-Abl constructs into BaF3 cells, 5 million BaF3 cells in 100 μL Nucleofector solution V (Amaxa, Gaithersburg, Md.) are mixed with 5 μg p210 Bcr-Abl WT, p210 Bcr-Abl (T315I), or p210 Bcr-Abl (E255K) in a cuvette and nucleofected using program G-16. Following nucleofection, the cells are incubated at a concentration of 1×10^6 cells/mL in complete RPMI-1640 media supplemented with 10% WEHI medium as the source of IL-3, overnight, to recover. Stable transfectants of BaF3 cells expressing the WT or mutant form of Bcr-Abl (i.e., T315I or E255K) are maintained in RPMI 1640 supplemented with 10% serum, 1.0 U/mL penicillin, 1 μg/mL streptomycin and 0.75 mg/mL G418. Stably expressing cells are then further selected by removal of IL-3. After confirmation of Bcr-Abl expression by immunoblot analysis, cells are used for the studies described herein.

[5] = tested on: Bcr-Abl; assay: Western analyses of Bcr-Abl levels, BaF3/Bcr-Abl cells; type: cell-based, mouse
[6] = tested on: Bcr-AblT315I; assay: Western analyses of Bcr-Abl levels, BaF3/Bcr-AblT315I cells; type: cell-based, mouse
[7] = tested on: Bcr-AblE255K; assay: Western analyses of Bcr-Abl levels, BaF3/Bcr-AblE255K cells; type: cell-based, mouse
[8] = tested on: primary, imatinib-resistant CML cells; assay: Loss of viability / apoptosis of primary imatinib-resistant CML-BC cells; type: cell-based, human; settings: for sensitivity of sample 7: Compound (II) at lower concentrations; for apoptosis of cells: sample no. 9 (Bcr-AblT315I)
Method: Primary CML-BC cells and NBMCs: […] Additionally, NBMCs are harvested and purified. Informed consents are signed by all patients to allow use of their cells for these experiments, as part of a clinical protocol approved by the University of South Florida Institutional Review Board (IRB). Sequencing of Bcr-Abl in CML-BC cells: […] Total RNA (5 μg) is reverse transcribed with a first-strand cDNA synthesis kit (Invitrogen). Reverse transcribed cDNAs are used in polymerase chain reaction (PCR) amplifications to amplify a fragment of Bcr-Abl that included the Bcr junction region and the c-Abl kinase region. The amplified sequences are agarose gel-purified and cloned into pCR4-TOPO plasmid. The resulting plasmids are transformed into Escherichia coli Mach1 cells (Invitrogen) overnight at 37° C. Ten colonies for each sample are checked by colony PCR and subcultured for plasmid isolation. Isolated plasmids are sequence verified with T3 and T7 primers for c-Abl kinase domain mutations. Assessment of percentage of non-viable cells: Cells are stained with trypan blue (Sigma, St Louis, Mo.). […] Apoptosis assessment by annexin V staining: Untreated and drug-treated cells are stained with annexin V and PI, and the percentage of apoptotic cells is determined by flow cytometry. Analysis of synergism between Compound (II) and Compound (V) in inducing apoptosis of K562 and LAMA-84 cells is performed by Median Dose-Effect analysis of Chou and Talalay using the commercially-available software (Calcusyn; Biosoft, Ferguson, Mo.).

[9] = tested on: Bcr-Abl; assay: Western/immunoblot analyses of Bcr-Abl and downstream signaling proteins, LAMA-84 cells; type: cell-based, human; settings: agent alone
Method: (§2) Cell lines and cell culture: Bcr-Abl-expressing, CML LAMA-84 and K562 cells are obtained from American Tissue Culture Collection (Manassas, Va.) and maintained in culture in RPMI medium containing 10% fetal bovine serum and passaged twice a week. […] Following these treatments, cells or cell pellets are washed free of the drug(s) prior to the performance of the studies.
(§3) Western analyses of proteins: Western analyses are performed using specific antisera or monoclonal antibodies according to previously reported protocols, and the horizontal scanning densitometry is performed on Western blots.
Immunoprecipitation of Bcr-Abl and immunoblot analyses: Following the designated drug treatments, cells are lysed in lysis buffer (20 mM Tris [pH 8], […] sodium chloride, 1% NP40, 0.1 M sodium fluoride, 1 mM PMSF, 1 mM sodium orthovanadate, 2.5 μg/mL leupeptin, 5 μg/mL aprotinin) for 30 minutes on ice, and the nuclear and cellular debris is cleared by centrifugation. Cell lysates (200 μg) are incubated with the Abl-specific monoclonal antibody for 1 hour at 4° C. To this, washed Protein G agarose beads are added and incubated overnight at 4° C. The immunoprecipitates are washed 3 times in the lysis buffer, and proteins are eluted with the SDS sample loading buffer prior to the immunoblot analyses with specific antibodies against anti-Abl or antiphosphotyrosine antibody.

[10] = tested on: BaF3/Bcr-Abl cells; assay: Apoptosis of BaF3 cells expressing unmutated Bcr-Abl; type: cell-based, mouse; settings: agent alone
From the text: as §2
(§4) Site-directed mutagenesis and nucleofection: Three p210 Bcr-Abl constructs are used in the current studies. The p210 Bcr-Abl WT and p210 Bcr-Abl (T315I) constructs are generated. […] For nucleofection of the p210 Bcr-Abl constructs into BaF3 cells, 5 million BaF3 cells in 100 μL Nucleofector solution V (Amaxa, Gaithersburg, Md.) are mixed with 5 μg p210 Bcr-Abl WT, p210 Bcr-Abl (T315I), or p210 Bcr-Abl (E255K) in a cuvette and nucleofected using program G-16. […] Stably expressing cells are then further selected by removal of IL-3. After confirmation of Bcr-Abl expression by immunoblot analysis, cells are used for the studies described herein.
(§5) Apoptosis assessment by annexin V staining: Untreated and drug-treated cells are stained with annexin V and PI, and the percentage of apoptotic cells is determined by flow cytometry.

[11] = tested on: BaF3/Bcr-AblE255K cells; assay: Apoptosis of BaF3 cells expressing Bcr-AblE255K; type: cell-based, mouse
From the text: as §2, §4, §5

[12] = tested on: Bcr-Abl; assay: Western blot analyses of total cell lysates of primary CML cells; type: cell-based, human; settings: sample 9; 1000 nM alone
Method: Additionally, NBMCs are harvested and purified. Informed consents are signed by all patients to allow use of their cells for these experiments, as part of a clinical protocol approved by the University of South Florida Institutional Review Board (IRB).
as §3

[13] = any of the levels tested, alone

SMILES: Cc1[nH]c2ccccc2c1CCNCc1ccc(/C=C/C(=O)NO)cc1 [Compound (V), N-hydroxy-3-[4-[[[2-(2-methyl-1H-indol-3-yl)-ethyl]-amino]methyl]phenyl]-2E-2-propenamide]
- apoptosis of K562 cells [1]: dose-dependent manner
- apoptosis of LAMA-84 cells [2]: dose-dependent manner
- loss of survival of NBMCs ([3]; 20 nM): 13.1%
- loss of survival of NBMCs ([3]; 50 nM): 15.9%
- apoptosis of BaF3/Bcr-Abl T315I cells ([4]; 50 nM, 48 hours): approximately 30%
- sensitivity of BaF3/Bcr-AblT315I cells to induced apoptosis ([4]; agent alone): as sensitive as BaF3/Bcr-Abl cells
- apoptosis of BaF3/Bcr-Abl T315I cells ([4]; levels lower than 50 nM): less effective
- Bcr-Abl levels ([5]; 50 nM, 24 hours): lowered
- Bcr-Abl levels ([6]; 50 nM, 24 hours): lowered
- Bcr-Abl levels ([7]; 50 nM, 24 hours): lowered
- sensitivity of sample 7 [8]: sensitive
- apoptosis of cells ([8]; 50 nM alone): 42.0%
- loss of cell viability ([8]; samples 1 to 7, agent alone): dose dependent
- cell viability ([8]; samples 8, 9, and 10 with Bcr-AblT315I mutation, alone, 48 hours, dose-dependent): markedly inhibited

SMILES: Cc1cn(-c2cc(NC(=O)c3ccc(C)c(Nc4nccc(-c5cccnc5)n4)c3)cc(C(F)(F)F)c2)cn1 [Compound (II), 4-methyl-3-[[4-(3-pyridinyl)-2-pyrimidinyl]amino]-N-[5-(4-methyl-1H-imidazol-1-yl)-3-(trifluoromethyl)phenyl]benzamide]
- potency in inducing apoptosis relative to imatinib ([1]; K562 cells): approximately 10 fold
- apoptosis of K562 cells [1]: dose-dependent manner
- potency in inducing apoptosis relative to imatinib ([2]; LAMA-84 cells): approximately 10 fold
- apoptosis of LAMA-84 cells [2]: dose-dependent manner
- expressions of c-Myc and Bcl-xL [9]: lowered
- levels of Bcr-Abl [9]: without affecting
- levels of p-AKT [9]: inhibited
- levels of p-CrkL [9]: inhibited
- levels of p-STAT5 [9]: attenuated
- levels of tyrosine phosphorylated Bcr-Abl [9]: inhibited
- p27 levels [9]: induction
- effect against NBMCs ([3]; up to 1.0 μM): no effect
- apoptosis of BaF3/Bcr-Abl cells [10]: dose-dependent manner
- apoptosis of BaF3/Bcr-AblT315I cells ([4]; levels as high as 2,000 nM): resistant
- apoptosis of BaF3/Bcr-AblE255K cells ([11]; 100 nM): ineffective
- apoptosis of BaF3/Bcr-AblE255K cells ([11]; 200 nM): 26.0%
- apoptosis of BaF3/Bcr-AblE255K cells ([11]; 500 nM): 43.0%
- levels of p-CrkL ([5]; agent alone): did not affect
- levels of Bcr-Abl [5, 13]: did not lower
- levels of p-CrkL ([6]; agent alone): did not affect
- levels of Bcr-Abl [6, 13]: did not lower
- levels of p-CrkL ([7]; agent alone): did not affect
- levels of Bcr-Abl [7, 13]: did not lower
- sensitivity of sample 7 [8]: relatively resistant
- apoptosis of cells ([8]; 2.0 μM): ineffective
- loss of cell viability ([8]; samples 1 to 7, agent alone): dose dependent
- loss of cell viability ([8]; samples 8, 9, and 10 with Bcr-AblT315I mutation, Compound (II) alone): did not augment
- levels of Bcr-Abl, p-CrkL, and p-STAT5 [12]: little effect
